Tested on: de novo fatty acid synthesis
Experiment: Lipid metabolite profile of plasma, heart, liver and inguinal adipose of CL316,243-treated mice (trial 2; Tables 7 and 8)
Format: in vivo
Details: mean
Source text: It is understood that the described methods can be used to analyze lipid metabolites from other subjects, including particularly animals other than mice.
Mouse tissue and plasma samples were a generous donation to Lipomics Technologies, Inc., from Dr. Edward Leiter of the Jackson Laboratory (Bar Harbor, Me.). Samples included the plasma, heart, liver and inguinal adipose of mice treated with pharmaceuticals or their corresponding controls.
In trial 2, male, inbred NON mice were fed a control with or without the presence of the β-3 adrenergic agonist CL316,243 for four weeks (at 0.001% CL316,243 by weight in the dietary chow).
In both studies, five treated and five control mice were used. Following the treatments and the killing of the mice, tissues and plasma were taken, chilled to −80 ° C. and shipped to the analysis laboratory at Lipomics Technologies in a frozen state.
Tissue processing and lipid extraction, including provision of internal standards, was carried out essentially as described in Watkins et al. (J. Lipid Res. Papers in Press, 10.1184/jlf.M200169-JLF200, published August 16, 2002), and in co-owned international application PCT/US02/21426, entitled “GENERATING, VIEWING, INTERPRETING, AND UTILIZING A QUANTITATIVE DATABASE OF METABOLITES,” both of which are incorporated in their entirety herein by reference.
The separation of lipid classes was performed in some instance by preparative thin-layer chromatography (TLC). To remove any residual metal or other damaging contaminants on the TLC plates, each plate was washed prior to use. Washing the plates is a three-step process that involves impregnating each plate with ethylenediamine tetraacetic acid (EDTA) and rinsing the plates once with methanol and once with chloroform. Each plate is first impregnated with 1 mM EDTA, pH 5.5, by ascending development using the method of Ruiz (J. Lipid Res. 38, 1482-1489, 1997). After each plate was completely developed, it was dried in air overnight. Once dry, each plate was developed in methanol, dried, and developed in chloroform in the same direction as the development with EDTA. The washed plates were then dried in air. Just prior to use, each plate was activated by heating to 110° C. for 10 minutes.
To prepare the TLC chamber for chromatography, Whatman (Clifton, N.J.) filter paper was cut into 20×80-cm strips and wrapped around the inside wall of a 30×60×10-cm glass development chamber. One hundred milliliters of the appropriate mobile phase was added to the chamber, and the chambers were sealed and allowed to equilibrate. Chambers were considered equilibrated when the solvent front had completely ascended the filter paper. The mobile phase employed for the separation of phospholipid classes (lyso-phospholipids, sphingomyelin, phosphatidylcholine, phosphatidylserine, phosphatidylethanolamine and cardiolipin) was a modification of the solvent system described by Holub and Skeaf (“Nutritional regulation of cellular phosphatidylinositol,” in Methods in Enzymology, ed. Conn, P. M. (Academic Press, Inc., Orlando), pp. 234-243, 1987) consisting of chloroform/methanol/acetic acid/water (100:67:7:4, by volume).
For the separation of neutral lipid classes (free fatty acids, free sterols, triacylglycerides and cholesterol esters), a solvent system consisting of petroleum ether/diethyl ether/acetic acid (80:20:1, by volume) was used (Mangold, Thin Layer Chromatography—A Laboratory Handbook (Springer-Verlag, New York), 1969).
After the TLC plate was activated, the sample extracts were spotted onto the activated plate. As a general rule, samples were spotted at an estimated concentration such that no single lipid class was present at more than 25 jig per centimeter of plate width following chromatography. This ensured that the plate was not overloaded and minimized the risk of cross-contamination between lipid classes (cross-contamination is readily identified during sample analysis as each lipid class contains unique internal standards). […]

C[C@H](Cc1ccc2c(c1)OC(C(=O)[O-])(C(=O)[O-])O2)NC[C@H](O)c1cccc(Cl)c1.[Na+].[Na+] [CL316,243]
16:0 (Heart, PS/I): 302.1 nanomoles per gram | 16:1n7 (Heart, PS/I): 48.6 nanomoles per gram | 18:0 (Heart, PS/I): 2823.7 nanomoles per gram | 18:1n7 (Heart, PS/I): 73.5 nanomoles per gram | 18:1n9 (Heart, PS/I): 572.9 nanomoles per gram | 14:0 (Heart, TAG): 78.8 nanomoles per gram | 16:0 (Heart, TAG): 651.6 nanomoles per gram | 16:1n7 (Heart, TAG): 57.3 nanomoles per gram | 18:0 (Heart, TAG): 195.5 nanomoles per gram | 18:1n7 (Heart, TAG): 28.0 nanomoles per gram | 18:1n9 (Heart, TAG): 402.8 nanomoles per gram | 14:0 (Heart, lipid class CE): 5.1 percentage of total fatty acids | 16:0 (Heart, lipid class CE): 15.4 percentage of total fatty acids | 16:1n7 (Heart, lipid class CE): 2.9 percentage of total fatty acids | 18:0 (Heart, lipid class CE): 7.0 percentage of total fatty acids | 18:1n7 (Heart, lipid class CE): 1.5 percentage of total fatty acids | 18:1n9 (Heart, lipid class CE): 30.1 percentage of total fatty acids | Saturates (Heart, lipid class CE): 30.3 percentage of total fatty acids | Total (Heart, lipid class CE): 100.0 percentage of total fatty acids | Total n7 (Heart, lipid class CE): 4.4 percentage of total fatty acids | Total n9 (Heart, lipid class CE): 31.5 percentage of total fatty acids | 14:0 (Heart, lipid class CL): 0.6 percentage of total fatty acids | 16:0 (Heart, lipid class CL): 2.0 percentage of total fatty acids | 16:1n7 (Heart, lipid class CL): 1.7 percentage of total fatty acids | 18:0 (Heart, lipid class CL): 3.3 percentage of total fatty acids | 18:1n7 (Heart, lipid class CL): 3.2 percentage of total fatty acids | 18:1n9 (Heart, lipid class CL): 8.0 percentage of total fatty acids | Saturates (Heart, lipid class CL): 6.5 percentage of total fatty acids | Total (Heart, lipid class CL): 25.0 percentage of total fatty acids | Total n7 (Heart, lipid class CL): 4.9 percentage of total fatty acids | Total n9 (Heart, lipid class CL): 8.5 percentage of total fatty acids | 14:0 (Heart, lipid class FFA): 2.9 percentage of total fatty acids | 16:0 (Heart, lipid class FFA): 17.8 percentage of total fatty acids | 16:1n7 (Heart, lipid class FFA): 2.3 percentage of total fatty acids | 18:0 (Heart, lipid class FFA): 7.4 percentage of total fatty acids | 18:1n7 (Heart, lipid class FFA): 2.2 percentage of total fatty acids | 18:1n9 (Heart, lipid class FFA): 29.9 percentage of total fatty acids | Saturates (Heart, lipid class FFA): 29.2 percentage of total fatty acids | Total (Heart, lipid class FFA): 100.0 percentage of total fatty acids | Total n7 (Heart, lipid class FFA): 4.5 percentage of total fatty acids | Total n9 (Heart, lipid class FFA): 30.8 percentage of total fatty acids | 14:0 (Heart, lipid class PC): 0.3 percentage of total fatty acids | 16:0 (Heart, lipid class PC): 26.9 percentage of total fatty acids | 16:1n7 (Heart, lipid class PC): 0.4 percentage of total fatty acids | 18:0 (Heart, lipid class PC): 17.4 percentage of total fatty acids | 18:1n7 (Heart, lipid class PC): 1.9 percentage of total fatty acids | 18:1n9 (Heart, lipid class PC): 6.6 percentage of total fatty acids | Saturates (Heart, lipid class PC): 45.0 percentage of total fatty acids | Total (Heart, lipid class PC): 50.0 percentage of total fatty acids | Total n7 (Heart, lipid class PC): 2.2 percentage of total fatty acids | Total n9 (Heart, lipid class PC): 6.8 percentage of total fatty acids | 14:0 (Heart, lipid class PE): 0.1 percentage of total fatty acids | 16:0 (Heart, lipid class PE): 9.3 percentage of total fatty acids | 16:1n7 (Heart, lipid class PE): 0.3 percentage of total fatty acids | 18:0 (Heart, lipid class PE): 26.7 percentage of total fatty acids | 18:1n7 (Heart, lipid class PE): 1.3 percentage of total fatty acids | 18:1n9 (Heart, lipid class PE): 4.8 percentage of total fatty acids | Saturates (Heart, lipid class PE): 36.5 percentage of total fatty acids | Total (Heart, lipid class PE): 50.0 percentage of total fatty acids | Total n7 (Heart, lipid class PE): 1.6 percentage of total fatty acids | Total n9 (Heart, lipid class PE): 5.0 percentage of total fatty acids | 14:0 (Heart, lipid class PL): 0.3 percentage of total fatty acids | 16:0 (Heart, lipid class PL): 16.0 percentage of total fatty acids | 16:1n7 (Heart, lipid class PL): 0.5 percentage of total fatty acids | 18:0 (Heart, lipid class PL): 19.8 percentage of total fatty acids | 18:1n7 (Heart, lipid class PL): 1.8 percentage of total fatty acids | 18:1n9 (Heart, lipid class PL): 6.1 percentage of total fatty acids | Saturates (Heart, lipid class PL): 37.0 percentage of total fatty acids | Total (Heart, lipid class PL): 50.0 percentage of total fatty acids | Total n7 (Heart, lipid class PL): 2.3 percentage of total fatty acids | Total n9 (Heart, lipid class PL): 6.5 percentage of total fatty acids | 14:0 (Heart, lipid class PS/I): 0.4 percentage of total fatty acids | 16:0 (Heart, lipid class PS/I): 3.5 percentage of total fatty acids | 16:1n7 (Heart, lipid class PS/I): 0.6 percentage of total fatty acids | 18:0 (Heart, lipid class PS/I): 33.1 percentage of total fatty acids | 18:1n7 (Heart, lipid class PS/I): 0.9 percentage of total fatty acids | 18:1n9 (Heart, lipid class PS/I): 6.7 percentage of total fatty acids | Saturates (Heart, lipid class PS/I): 38.0 percentage of total fatty acids | Total (Heart, lipid class PS/I): 50.0 percentage of total fatty acids | Total n7 (Heart, lipid class PS/I): 1.4 percentage of total fatty acids | Total n9 (Heart, lipid class PS/I): 7.1 percentage of total fatty acids | 14:0 (Heart, lipid class TAG): 4.1 percentage of total fatty acids | 16:0 (Heart, lipid class TAG): 34.2 percentage of total fatty acids | 16:1n7 (Heart, lipid class TAG): 2.9 percentage of total fatty acids | 18:0 (Heart, lipid class TAG): 10.1 percentage of total fatty acids | 18:1n7 (Heart, lipid class TAG): 1.5 percentage of total fatty acids | 18:1n9 (Heart, lipid class TAG): 21.5 percentage of total fatty acids | Saturates (Heart, lipid class TAG): 51.9 percentage of total fatty acids | Total (Heart, lipid class TAG): 33.3 percentage of total fatty acids | Total n7 (Heart, lipid class TAG): 4.4 percentage of total fatty acids | Total n9 (Heart, lipid class TAG): 22.9 percentage of total fatty acids | 14:0 (Liver, CE): 45.5 nanomoles per gram | 16:0 (Liver, CE): 462.8 nanomoles per gram | 16:1n7 (Liver, CE): 84.4 nanomoles per gram | 18:0 (Liver, CE): 121.3 nanomoles per gram | 18:1n7 (Liver, CE): 31.5 nanomoles per gram | 18:1n9 (Liver, CE): 455.4 nanomoles per gram | Saturates (Liver, CE): 668.6 nanomoles per gram | Total n7 (Liver, CE): 115.9 nanomoles per gram | Total n9 (Liver, CE): 482.4 nanomoles per gram | Total nMole of FA (Liver, CE): 1764.6 nanomoles per gram | 14:0 (Liver, CL): 21.3 nanomoles per gram | 16:0 (Liver, CL): 254.3 nanomoles per gram | 16:1n7 (Liver, CL): 85.8 nanomoles per gram | 18:0 (Liver, CL): 260.0 nanomoles per gram | 18:1n7 (Liver, CL): 215.4 nanomoles per gram | 18:1n9 (Liver, CL): 437.0 nanomoles per gram | Saturates (Liver, CL): 556.4 nanomoles per gram | Total n7 (Liver, CL): 301.2 nanomoles per gram | Total n9 (Liver, CL): 473.0 nanomoles per gram | Total nMole of FA (Liver, CL): 1255.5 nanomoles per gram | 14:0 (Liver, FFA): 152.9 nanomoles per gram | 16:0 (Liver, FFA): 2280.7 nanomoles per gram | 16:1n7 (Liver, FFA): 375.0 nanomoles per gram | 18:0 (Liver, FFA): 460.2 nanomoles per gram | 18:1n7 (Liver, FFA): 273.5 nanomoles per gram | 18:1n9 (Liver, FFA): 2293.4 nanomoles per gram | Saturates (Liver, FFA): 2951.3 nanomoles per gram | Total n7 (Liver, FFA): 648.5 nanomoles per gram | Total n9 (Liver, FFA): 2337.2 nanomoles per gram

Source: US20050009005A1, “Methods of using quantitative lipid metabolome data” (Lipomics Technologies, Inc., priority 2001, published 2005)
